Data as given in patent US4912102A, “Analogs of naphtho[1,2-β] [1,4] thiazepin-4(5H)-one” (Hoffmann-La Roche Inc., priority 1988, dated 1990).
Counter-ions that a name gives are not always drawn. Like-named read-outs stand apart in the source and are kept apart here.

Legend:
[1] = test system: lipid peroxidation in liposomes prepared from native rat cardiac lipid; assay: Anti-peroxidative activity (superoxide-dependent, iron-promoted lipid peroxidation, MDA-like products); type: biochemical; conditions: for Anti-Peroxidative Activity % Inhibition (1 μM) / IC50: 60 minutes at 37° C.
Experimental: An in vitro assay system to measure antiperoxidative activity is done in two steps: (A) lipid peroxidation is triggered by a free-radical generating system that replicates the superoxide-dependent, iron-promoted Haber-Weiss reaction, and (B) peroxidation is measured spectrophotometrically as the production of malondialdehyde-like products (MDA). Liposomes prepared from the native rat cardiac lipid are incubated with hypoxanthine, xanthine oxidase, and Fe· ADP chelate, and a test substance or buffer in glass tubes for 60 minutes at 37° C. The amount of peroxidation is determined by adding a thiobarbituric acid-reaction mixture to the tubes, heating to 80° C. for 30 minutes and reading the pink adduct at 530 nm.

[2] = test system: Guinea Pig Ileal Longitudinal Smooth Muscle; assay: Inhibition of K+-induced tonic contraction, guinea pig ileum assay (calcium channel blocking activity); type: cell-based; conditions: for activity in the guinea pig ileum test: doses up to 10^-4 M; for IC50: tonic contraction, 80 mM K+ challenge, 37° C., read-out: Inhibition of K^+-Induced Contractile Responses, IC50, Tonic
Experimental: Male guinea-pigs weighing from 300-400 grams were stunned and bled. The abdomen was opened and 10-15 cm of terminal ileum was carefully removed and cleaned and placed in Tyrode's Solution of the following composition: NaCl (8 g/l), KCl (0.2 g/l), MgCl2 (0.1 g/l), CaCl2 (0.2 g/l). NaH2 PO4 (0.05 g/l), NaHCO3 (1.0 g/l) and Glucose (1 g/l). The solution was maintained at 37° C. and gassed with 95% O2 and 5% CO2. Portions of the ileum were placed over a glass rod, a shallow incision was made the length of the mesenteric attachment just severing the outer-longitudinal muscle layer. The longitudinal muscle was separated from the underlying circular muscle by gentle dissection (Rang. H. P. Annals. of New York Academy of Science, vol. 144, page 756, 1964). The tissue was fixed at one end to a tissue holder, the other end was connected by a thread to a force transducer and suspended in a muscle bath containing Tyrode's Solution maintained at 37° C. and gassed with 95% O2 and 5% CO2. An initial tension of 500 mg was applied and the tissue allowed to equilibrate for 60 minutes prior to the start of the study. During this period the tissue was washed every 16 minutes. Each preparation, at 16 minute intervals, was challenged with KCl sufficient to yield a bath K+ concentration of 80 mMK for 2 minutes, then washed with fresh solution. The 16 minute interval between K+ challenges was maintained throughout the study. Upon stabilization of the responses to the K+ challenge the test compound (potential calcium entry antagonist) was introduced into the bath 2 minutes prior to and during the 2 minute exposure to K+ after which the bath was cleared and washed with fresh solution. Logarithmically increasing doses (up to 10^-4 M) of the potential antagonist were administered as the study progressed. The measure of a compound's ability to inhibit the tonic contraction of muscle is a measure of its activity as a calcium channel blocking agent.

| Compound | activity in the anti-peroxidative test [1] | activity in the guinea pig ileum test [2] | IC50 ([2]; Cavia porcellus) [µM] | IC50 [1] [µM] | other results |
| --- | --- | --- | --- | --- | --- |
| COc1ccc([C@@H]2Sc3c(ccc4ccccc34)N(CCN(C)C)C(=O)[C@@H]2OC(=O)c2cc(C(C)(C)C)c(O)c(C(C)(C)C)c2)cc1 (racemic) [Example 14, (±)-cis-2,3-Dihydro-3-[[4-hydroxy-3,5-bis(1,1-dimethylethyl)benzoyl]oxy]-2-(4-methoxyphenyl)-5-[2-(dimethylamino)ethyl]naphtho[1,2-b][1,4]thiazepin-4(5H)-one] | active | not found to be active | – | – | – |
| COc1ccc([C@@H]2Sc3c(ccc4ccccc34)N(CCN(C)C)C(=O)[C@@H]2OC(=O)c2ccccc2OC(C)=O)cc1 (relative stereo) [Compound E, (±)-cis-3-[[(2-acetyloxy)benzoyl]oxy]-2,3-dihydro-5-[2-(dimethylamino)ethyl]-2-(4-methoxyphenyl)naphtho[1,2-b][1,4]thiazepin-4(5H)-one hydrochloride] | – | – | 13 | – | – |
| CNCCN1C(=O)[C@H](OC(C)=O)[C@H](c2ccc(OC)cc2)Sc2c1ccc1ccccc21 (relative stereo) [Compound D] | – | – | – | – | IC50 [2]: 3.5 µM |
| COc1ccc([C@@H]2Sc3c(ccc4ccccc34)N(CCN(C)C)C(=O)[C@@H]2OC(=O)c2ccc(OC)c(OC)c2)cc1 (relative stereo) [Example 4, (±)-cis-3-[(3,4-Dimethoxybenzoyl)oxy]-2,3-dihydro-5-[2-(dimethylamino)ethyl]-2-(4-methoxyphenyl)naphtho][1,2-b][1,4]thiazepin-4(5H)-one] | active | not found to be active | – | – | – |
| COc1ccc([C@@H]2Sc3c(ccc4ccccc34)N(CCN(C)C)C(=O)[C@@H]2OC(=O)C2(C)CCc3c(C)c(O)c(C)c(C)c3O2)cc1 (relative stereo) [Example 18, [(+)-cis-3(2alpha and 2beta)1-2,3-Dihydro-3-[[(3,4-dihydro-6-hydroxy-2,5,7,8-tetramethyl-2H-1-benzopyran-2-yl)carbonyl]oxy]-2-(4-methoxyphenyl)-5-[2-(dimethylamino)ethyl]naphtho[1,2-b][1,4]thiazepin-4(5H)-one] | active | not found to be active | – | – | – |
| CNCCN1C(=O)[C@H](O)[C@H](c2ccc(OC)cc2)Sc2c1ccc1ccccc21 (relative stereo) [Compound C] | – | – | – | – | IC50 [2]: 7 µM |
| COc1ccc([C@@H]2Sc3c(ccc4ccccc34)N(CCN(C)C)C(=O)[C@@H]2OC(=O)C2(C)CCc3c(cc(C(C)C)c(O)c3C(C)C)O2)cc1 (single isomer, unassigned; (+)) [Example 17 isomer "B", [(+)-cis-3(2alpha, or 2beta)]-2,3-dihydro-3-[[[3,4-dihydro-6-hydroxy-2-methyl-5,7-bis(1-methylethyl)-2H-1-benzopyran-2-yl]carbonyl]oxy]-5-[2-(dimethylamino)ethyl]-2-(4-methoxyphenyl)naphtho[1,2-b][1,4]thiazepin-4(5H)-one] | – | not found to be active | – | < 1 | Anti-Peroxidative Activity % Inhibition (1 μM) [1]: 59.6% |
| COc1ccc([C@@H]2Sc3c(ccc4ccccc34)N(CCN(C)C)C(=O)[C@@H]2OC(=O)C2(C)CCc3c(cc(C(C)C)c(O)c3C(C)C)O2)cc1 (single isomer, unassigned; (+)) [Example 17 isomer "A", [(+)-Cis-3(2α or 2β)]-2,3-dihydro-3-[[[3,4-dihydro-6-hydroxy-2-methyl-5,7-bis(1-methylethyl)-2H-1-benzopyran-2-yl]carbonyl]oxy]-5-[2-(dimethylamino)ethyl]-2-(4-methoxyphenyl)naphtho[1,2-b][1,4]thiazepin-4(5H)-one (E)-2-butenedioate monohydrate] | found to be active | not found to be active | – | < 1 | Anti-Peroxidative Activity % Inhibition (1 μM) ([1]; monohydrate): 58.5% |
| COc1ccc([C@@H]2Sc3c(ccc4ccccc34)N(CCN(C)C)C(=O)[C@@H]2OC(=O)c2ccccc2O)cc1 (racemic) [Compound F, (±)-cis-2,3-dihydro-3-[(2-hydroxybenzoyl)oxy]-5-[2-(dimethylamino)ethyl]-2-(4-methoxyphenyl)naphtho[1,2-b][1,4]thiazepin-4(5H)-one hydrochloride] | – | – | 45 | – | – |
| COc1ccc([C@@H]2Sc3c(ccc4ccccc34)N(CCN(C)C)C(=O)[C@@H]2OC(=O)C2(C)CCc3c(cc(C(C)C)c(O)c3C(C)C)O2)cc1 (relative stereo) [Example 15 isomer "A", [(±)-cis-3(2alpha or 2beta)]-2,3-dihydro-3-[[[3,4-dihydro-6-hydroxy-2-methyl-5,7-bis(1-methylethyl)-2H-1-benzopyran-2-yl]carbonyl]oxy]-5-[2-(dimethylamino)ethyl]-2-(4-methoxyphenyl)naphtho[1,2-b][1,4]thiazepin-4(5H)-one] | found to be active | – | – | < 1 | Anti-Peroxidative Activity % Inhibition (1 μM) ([1]; listed as drawing 26, 1 µM): 62.6% |
| COc1ccc([C@@H]2Sc3c(ccc4ccccc34)N(CCN(C)C)C(=O)[C@@H]2OC(=O)c2cccnc2)cc1 (relative stereo) [Compound M, (±)-cis-2,3-dihydro-2-(4-methoxyphenyl)-5-[2-(dimethylamino)ethyl]-3-[(3-pyridinylcarbonyl)oxy]naphtho[1,2-b][1,4]thiazepin-4(5H)-one dihydrochloride (4:5) hydrate] | – | – | 16 | – | – |
| COc1ccc([C@@H]2Sc3c(ccc4ccccc34)N(CCN(C)C)C(=O)[C@@H]2OC(=O)c2cc(OC)c(OC)c(OC)c2)cc1 (racemic) [Compound J, (±)-cis-2,3-dihydro-2-(4-methoxyphenyl)-3-[(3,4,5-trimethoxybenzoyl)oxy]-5-[2-(dimethylamino)ethyl]naphtho [1,2-b][1,4]thiazepin-4(5H)-one hydrochloride] | – | – | 70 | – | – |
| COc1ccc([C@@H]2Sc3c(ccc4ccccc34)N(CCN(C)C)C(=O)[C@@H]2OC(=O)C2(C)CCc3c(cc(C(C)C)c(O)c3C(C)C)O2)cc1 (relative stereo) [Example 15 isomer "B", [(±)-cis-3(2alpha or 2beta)]-2,3-dihydro-3-[[[3,4-dihydro-6-hydroxy-2-methyl-5,7-bis(1-methylethyl)-2H-1-benzopyran-2-yl]carbonyl]oxy]-5-[2-(dimethylamino)ethyl]-2-(4-methoxyphenyl)naphtho[1,2-b][1,4]thiazepin-4(5H)-one] | – | – | – | < 1 | Anti-Peroxidative Activity % Inhibition (1 μM) ([1]; listed as drawing 27, 1 µM): 66.7% |
